Values after ≈ are worked out from the molar mass of the structure shown. Structures can show the parent of a compound that is named as a salt. Where two headings read alike, the source gives them in different places.
Legend:
[1] = Hygroscopicity test; type: physicochemical; conditions: 25° C., RH80%, 24 hours
Experimental: An appropriate amount of a test product is taken and spread in a glass-stoppered weighing bottle that has been placed in an artificial climate box (temperature is 25° C.±1° C., relative humidity is 80%±2%) for 24 hours. The weighing bottle is opened, put together with the stopper in the artificial climate box (the temperature is 25° C.±1° C., the relative humidity is 80%±2%) for 24 hours, and then taken out. The moisture content of the test product before and after being placed in the artificial climate box is measured, and the hygroscopicity is measured by comparing the change in moisture content.

[2] = type: physicochemical
Experimental: The test product is placed in suitable clean containers, and then placed under conditions of high temperature (80° C.), high humidity (25° C., relative humidity 92.5%), and light (light intensity 4500±500 1× and 90 μw/cm^2), respectively, for 7 days, and samples are taken on the 7th day and tested according to the stability inspection items.

[3] = physchem; type: physicochemical; conditions: for Solubility in water: 30 min
Experimental: About 10 mg of the test product is taken and put in a 1.5 mL sample tube, to which 1 mL of deionized water is added, and then the sample tube is placed in a constant temperature mixer and shaken at 37° C. for 30 minutes; after shaking, the sample tube is placed in a centrifuge to undergo centrifugation for 2 minutes. Then, 500 μL of the supernatant is taken and diluted with acetonitrile to an appropriate concentration, which is used as a test sample solution for HPLC analysis.
An appropriate amount of sample was weighed and put in a glass test tube, to which a selected solvent was gradually added. The clarification process was observed.

[4] = test system: SARS-CoV-2; conditions: according to experimental tests; compounds of CN 202010313870.X; cited from earlier work
[5] = test system: a variety of other RNA viruses; conditions: according to experimental tests; compounds of CN 202010313870.X; cited from earlier work

Question: Which results are given for Cl.[2H]c1cc([C@]2(C#N)O[C@H](COC(=O)C(C)C)[C@@H](OC(=O)C(C)C)[C@H]2OC(=O)C(C)C)n2ncnc(N)c12 [Hydrochloride of Compound Z, (2R,3R,4R,5R)-2-(4-aminopyrrolo[2,1-f][1,2,4]triazin-7-yl-5-d)-2-cyano-5-(isobutyryloxymethyl)tetrahydrofuran-3,4-diyl bis(2-methylpropanoate) hydrochloride]?
Answer: increase in moisture content [1]: moisture content of <0.1%; Hygroscopicity ([1]; listed as hydrochloride of Compound Z, hydrochloride): no hygroscopicity

Question: With [2H]c1cc([C@]2(C#N)O[C@H](COC(=O)C(C)C)[C@@H](OC(=O)C(C)C)[C@H]2OC(=O)C(C)C)n2ncnc(N)c12 [Mesylate of Compound Z, (2R,3R,4R,5R)-2-(4-aminopyrrolo[2,1-f][1,2,4]triazin-7-yl-5-d)-2-cyano-5-(isobutyryloxymethyl)tetrahydrofuran-3,4-diyl bis(2-methylpropanoate) mesylate] as the compound, how does the “increase in moisture content” value [1] read?
Answer: The value was “moisture content of <0.2%”.

Question: And the Hygroscopicity ([1]; listed as mesylate of Compound Z, mesylate)?
Answer: Its Hygroscopicity is “no hygroscopicity”.

Question: What about the Stability [2] of the same compound?
Answer: Its Stability is “decomposed obviously and had a peculiar smell”.

Question: What about the Solubility in water [3] of the same compound?
Answer: Its Solubility in water is 464 µg/mL.

Question: With CC(C)C(=O)OC[C@H]1O[C@@](C#N)(c2ccc3c(N)ncnn23)[C@H](OC(=O)C(C)C)[C@@H]1OC(=O)C(C)C [Compound W, (2R,3R,4R,5R)-2-(4-aminopyrrolo[2,1-f][1,2,4]triazin-7-yl)-2-cyano-5-(isobutyryloxymethyl)tetrahydrofuran-3,4-diyl bis(2-methylpropanoate)] as the compound, how does the water solubility [3] read?
Answer: Its water solubility is “poor water solubility”.

Question: What about the anti-SARS-CoV-2 activity [4] of the same compound?
Answer: The anti-SARS-CoV-2 activity was “significant”.

Question: What about the “inhibitory effect on a variety of other RNA viruses” value [5] of the same compound?
Answer: The value was “good inhibitory effect”.

Question: Which results are given for [2H]c1cc([C@]2(C#N)O[C@H](COC(=O)C(C)C)[C@@H](OC(=O)C(C)C)[C@H]2OC(=O)C(C)C)n2ncnc(N)c12 [Nitrate of Compound Z, (2R,3R,4R,5R)-2-(4-aminopyrrolo[2,1-f][1,2,4]triazin-7-yl-5-d)-2-cyano-5-(isobutyryloxymethyl)tetrahydrofuran-3,4-diyl bis(2-methylpropanoate) nitrate]?
Answer: Hygroscopicity ([1]; listed as nitrate of Compound Z, nitrate): no hygroscopicity; increase in moisture content ([1]; nitrate): moisture content of <0.1%; Stability ([2]; 7 days): (80° C.), the solid melted, decomposed,

Question: With Br.CC(C)C(=O)OC[C@H]1O[C@@](C#N)(c2ccc3c(N)ncnn23)[C@H](OC(=O)C(C)C)[C@@H]1OC(=O)C(C)C [Hydrobromide of Compound W, (2R,3R,4R,5R)-2-(4-aminopyrrolo[2,1-f][1,2,4]triazin-7-yl)-2-cyano-5-(isobutyryloxymethyl)tetrahydrofuran-3,4-diyl bis(2-methylpropanoate) hydrobromide] as the compound, how does the Hygroscopicity [1] read?
Answer: Its Hygroscopicity is “no hygroscopicity”.

Question: And the “increase in moisture content” value [1]?
Answer: Its value is “RH80%, with an increase in moisture content of <0.1%,”.

Question: And the Stability ([2]; 7 days)?
Answer: Its Stability is “Good stability under high temperature (80° C.), high”.

Question: Which results are given for [2H]c1cc([C@]2(C#N)O[C@H](COC(=O)C(C)C)[C@@H](OC(=O)C(C)C)[C@H]2OC(=O)C(C)C)n2ncnc(N)c12 [Compound Z, (2R,3R,4R,5R)-2-(4-aminopyrrolo[2,1-f][1,2,4]triazin-7-yl-5-d)-2-cyano-5-(isobutyryloxymethyl)tetrahydrofuran-3,4-diyl bis(2-methylpropanoate)]?
Answer: water solubility [3]: poor water solubility; Solubility in water [3]: 29 µg/mL (≈ 57.7 µM); anti-SARS-CoV-2 activity [4]: significant; inhibitory effect on a variety of other RNA viruses [5]: good inhibitory effect

Question: What does the source list for O=C(O)/C=C\C(=O)O.[2H]c1cc([C@]2(C#N)O[C@H](COC(=O)C(C)C)[C@@H](OC(=O)C(C)C)[C@H]2OC(=O)C(C)C)n2ncnc(N)c12 [Maleate of Compound Z, (2R,3R,4R,5R)-2-(4-aminopyrrolo[2,1-f][1,2,4]triazin-7-yl-5-d)-2-cyano-5-(isobutyryloxymethyl)tetrahydrofuran-3,4-diyl bis(2-methylpropanoate) maleate]?
Answer: increase in moisture content [1]: moisture content of <0.1%; Hygroscopicity ([1]; listed as maleate of Compound Z, maleate): no hygroscopicity; solubility at 30 min ([3]; 37 °C, water, thermodynamic from solid, Solubility in water): 351 µg/mL

— patent US20230312584A1, “SALT OF NUCLEOSIDE ANALOG, AND CRYSTAL FORM, PHARMACEUTICAL COMPOSITION AND USE THEREOF” (priority 2020, published 2023)
